Results on 21 compounds are retold here after patent publication US4948782A, “A method of promoting the growth of domestic animals with erythromycin derivative containing composition” (Kitasato Kenkyusho, priority 1987, dated 1990).

What all share (format): cell-based
Experiment [1] relates to Klebsiella pneumoniae ATCC 10031. Nature of the experiment: MIC, Klebsiella pneumoniae ATCC 10031 (KP). The following applies: ATCC10031; Klebsiella pneumoniae ATCC 10031; read-out: MIC KP.
Experiment [2] concerns Escherichia coli NIHJ. Put plainly: MIC, Escherichia coli NIHJ (EC).
Experiment [3] deals with Bacillus cereus IFO 3001. Nature of the experiment: MIC, Bacillus cereus IFO 3001 (BC). The following applies: Bacillus cereus, IFO3001, Bacillus cereus IFO 3001; read-out: MIC BC.
Experiment [4] deals with Bacillus subtilis. Nature of the experiment: MIC, Bacillus subtilis (BS). The settings on record: read-out: MIC BS.
Experiment [5] concerns Staphylococcus aureus ATCC 6538P. Nature of the experiment: MIC, Staphylococcus aureus ATCC 6538P (SA(1)). The following applies: Staphylococcus aureus, ATCC6538P, Staphylococcus aureus ATCC 6538P; read-out: MIC SA (1). An excerpt: (§1) The minimum inhibitory concentrations (MIC: mcg/ml) of the erythromycin derivatives of the present invention and the control erythromycin derivative (*) as the known growth promoting agent on typical test bacteria are shown in the following Tables 1 to 5.
SA(1): Staphylococcus aureus ATCC 6538P

The subject of experiment [6] is Staphylococcus aureus FDA 209P. Put plainly: MIC, Staphylococcus aureus FDA 209P (SA(2)). The following applies: Staphylococcus aureus, FDA209P, Staphylococcus aureus FDA 209P; read-out: MIC SA (2).
Text: as §1
SA(2): Staphylococcus aureus FDA 209P

On to `CC[C@H]1OC(=O)[C@H](C)[C@@H](O[C@H]2C[C@@](C)(OC)[C@@H](O)[C@H](C)O2)[C@H](C)[C@@H](O[C@@H]2O[C@H](C)C[C@H]([N+](C)(C)C)[C@H]2O)[C@@]2(C)CC(C)C3(O[C@@]1(C)[C@H](O)[C@H]3C)O2` (stereo partly drawn) [Compound 70], for which the MIC in experiment [1], in experiment [2], in experiment [3], in experiment [4], in experiment [5] and in experiment [6] was greater than 100 µg/mL throughout.
In the case of `C#CC[N+](C)(C)C1CC(C)OC(OC2C(C)C(OC3CC(C)(OC)C(O)C(C)O3)C(C)C(=O)OC(CC)C(C)(OC(C)=O)C(OC(C)=O)C(C)C3=C(C)CC2(C)O3)C1O` (stereo not drawn) [Compound 28], the MIC in experiment [1] was greater than 100 µg/mL; in experiment [2], greater than 100 µg/mL; in experiment [3] it was 50 µg/mL; in experiment [4], 50 µg/mL; in experiment [5] it was 50 µg/mL; in experiment [6], 50 µg/mL.
Consider `CCC1OC(=O)C(C)C(OC2CC(C)(OC)C(O)C(C)O2)C(C)C(OC2OC(C)CC([N+](C)(C)CCF)C2O)C2(C)CC(C)=C(O2)C(C)C(O)C1(C)O` (stereo not drawn) [Compound 32], for which the MIC in experiment [1], in experiment [2], in experiment [3], in experiment [4], in experiment [5] and in experiment [6] was greater than 100 µg/mL in each case.
In the case of `CCC1OC(=O)C(C)C(OC2CC(C)(OC)C(O)C(C)O2)C(C)C(OC2OC(C)CC(NC)C2O)C2(C)CC(C)=C(O2)C(C)C(OC(C)=O)C1(C)OC(C)=O` (stereo not drawn) [Compound 52], the MIC in experiment [1], in experiment [2], in experiment [3], in experiment [4], in experiment [5] and in experiment [6] was greater than 100 µg/mL each time.
Consider `CCC1OC(=O)C(C)C(OC2CC(C)(OC)C(O)C(C)O2)C(C)C(OC2OC(C)CC(N)C2O)C2(C)CC(C)=C(O2)C(C)C(O)C1(C)O` (stereo not drawn) [Compound 9], for which the MIC in experiment [1], in experiment [2], in experiment [3], in experiment [4], in experiment [5] and in experiment [6] was greater than 100 µg/mL each time.
Regarding `CCC1OC(=O)C(C)C(OC2CC(C)(OC)C(O)C(C)O2)C(C)C(OC2OC(C)CC(N(C)CC)C2O)C2(C)CC(C)=C(O2)C(C)C(OC(C)=O)C1(C)OC(C)=O` (stereo not drawn) [Compound 53], the MIC in experiment [1], in experiment [2], in experiment [3], in experiment [4], in experiment [5] and in experiment [6] was greater than 100 µg/mL throughout.
For the compound `C#CC[N+](C)(C)[C@H]1C[C@@H](C)O[C@@H](O[C@@H]2[C@@H](C)[C@H](O[C@H]3C[C@@](C)(OC)[C@@H](O)[C@H](C)O3)[C@@H](C)C(=O)O[C@H](CC)[C@@](C)(O)[C@H](O)[C@@H](C)C3O[C@]2(C)CC3C)[C@@H]1OC(C)=O` (stereo partly drawn) [Compound 68], the MIC in experiment [1], in experiment [2], in experiment [3], in experiment [4], in experiment [5] and in experiment [6] was greater than 100 µg/mL each time.
Turning to `C#CC[N+](C)(C)C1CC(C)OC(OC2C(C)C(OC3CC(C)(OC)C(O)C(C)O3)C(C)C(=O)OC(CC)C3(C)OC(=O)OC3C(C)C3=C(C)CC2(C)O3)C1O` (stereo not drawn) [Compound 57], the MIC was greater than 100 µg/mL in experiment [1]; greater than 100 µg/mL in experiment [2]; 25 µg/mL in experiment [3]; 50 µg/mL in experiment [4]; 25 µg/mL in experiment [5]; 50 µg/mL in experiment [6].
Regarding `C#CC[N+](C)(C)[C@H]1C[C@@H](C)O[C@@H](O[C@@H]2[C@@H](C)[C@H](O[C@H]3C[C@@](C)(OC)[C@@H](O)[C@H](C)O3)[C@@H](C)C(=O)O[C@H](CC)C(C)[C@H](O)[C@@H](C)C3=C(C)C[C@@]2(C)O3)[C@@H]1O` (stereo partly drawn) [Compound 75], the MIC in experiment [1] is greater than 100 µg/mL; in experiment [2], greater than 100 µg/mL; in experiment [3], 100 µg/mL; in experiment [4], 100 µg/mL; in experiment [5], 100 µg/mL; in experiment [6] it was 100 µg/mL.
Consider `C#CCN(CC=C)C1CC(C)OC(OC2C(C)C(OC3CC(C)(OC)C(O)C(C)O3)C(C)C(=O)OC(CC)C(C)(O)C(O)C(C)C3=C(C)CC2(C)O3)C1O` (stereo not drawn) [Compound 42], for which the minimum inhibitory concentration (MIC) in experiment [1], in experiment [2], in experiment [3], in experiment [4], in experiment [5] and in experiment [6] was greater than 100 µg/mL each time.
As to `CC[C@H]1OC(=O)[C@H](C)[C@@H](O[C@H]2C[C@@](C)(OC)[C@@H](O)[C@H](C)O2)[C@H](C)[C@@H](O[C@@H]2O[C@H](C)C[C@H]([N+](C)(C)C)[C@H]2O)[C@@]2(C)CC(C)C(O2)[C@H](C)[C@@H](O)[C@]1(C)O` (stereo partly drawn) [Compound 62], the MIC in experiment [1], in experiment [2], in experiment [3], in experiment [4], in experiment [5] and in experiment [6] was greater than 100 µg/mL in each case.
For `CCCCN(C)C1CC(C)OC(OC2C(C)C(OC3CC(C)(OC)C(O)C(C)O3)C(C)C(=O)OC(CC)C(C)(O)C(O)C(C)C3=C(C)CC2(C)O3)C1O` (stereo not drawn) [Compound 11], the MIC in experiment [1], in experiment [2], in experiment [3], in experiment [4], in experiment [5] and in experiment [6] was greater than 100 µg/mL each time.
Regarding `C#CC[N+](C)(C)[C@H]1C[C@@H](C)O[C@@H](O[C@@H]2[C@@H](C)[C@H](O[C@H]3C[C@@](C)(OC)[C@@H](OC=O)[C@H](C)O3)[C@@H](C)C(=O)O[C@H](CC)[C@@](C)(O)[C@H](O)[C@@H](C)C3=C(C)C[C@@]2(C)O3)[C@@H]1O` [Compound 60], the MIC in experiment [1], in experiment [2], in experiment [3], in experiment [4], in experiment [5] and in experiment [6] was greater than 100 µg/mL throughout.
As for `CCC1OC(=O)C(C)C(OC2CC(C)(OC)C(O)C(C)O2)C(C)C(OC2OC(C)CC([N+](C)(C)Cc3ccccc3)C2O)C2(C)CC(C)=C(O2)C(C)C(O)C1(C)O` (stereo not drawn) [Compound 17], the MIC in experiment [1] was greater than 100 µg/mL; in experiment [2], greater than 100 µg/mL; in experiment [3], 100 µg/mL; in experiment [4], 50 µg/mL; in experiment [5] it was 100 µg/mL; in experiment [6], 100 µg/mL.
For `CC[C@H]1OC(=O)[C@H](C)[C@@H](O[C@H]2C[C@@](C)(OC)[C@@H](O)[C@H](C)O2)[C@H](C)[C@@H](O[C@@H]2O[C@H](C)C[C@H]([N+](C)(C)CC)[C@H]2O)[C@](C)(O)C[C@@H](C)C(=O)[C@H](C)[C@@H](O)[C@]1(C)O` [Compound 76], the MIC in experiment [1] was greater than 100 µg/mL; in experiment [2], greater than 100 µg/mL; in experiment [3], 6.25 µg/mL; in experiment [4], less than 3.12 µg/mL; in experiment [5] it was 6.25 µg/mL; in experiment [6], 12.5 µg/mL.
For `CCC1OC(=O)C(C)C(OC2CC(C)(OC)C(O)C(C)O2)C(C)C(OC2OC(C)CC([N+](C)(C)CC(=O)O)C2O)C2(C)CC(C)=C(O2)C(C)C(O)C1(C)O` (stereo not drawn) [Compound 31], the MIC in experiment [1], in experiment [2], in experiment [3], in experiment [4], in experiment [5] and in experiment [6] was greater than 100 µg/mL in each case.
For `CCC1OC(=O)C(C)C(OC2CC(C)(OC)C(O)C(C)O2)C(C)C(OC2OC(C)CC([N+](C)(C)CC)C2O)C2(C)CC(C)=C(O2)C(C)C(OS(C)(=O)=O)C1(C)O` (stereo not drawn) [Compound 18], the MIC in experiment [1], in experiment [2], in experiment [3], in experiment [4], in experiment [5] and in experiment [6] was greater than 100 µg/mL throughout.
As to `CCC1OC(=O)C(C)C(OC2CC(C)(OC)C(O)C(C)O2)C(C)C(OC2OC(C)CC(N(C)CCO)C2O)C2(C)CC(C)=C(O2)C(C)C(O)C1(C)O` (stereo not drawn) [Compound 37], the MIC in experiment [1], in experiment [2], in experiment [3], in experiment [4], in experiment [5] and in experiment [6] was greater than 100 µg/mL each time.
As to `CCC1OC(=O)C(C)C(OC2CC(C)(OC)C(O)C(C)O2)C(C)C(OC2OC(C)CC([N+]3(C)CCCC3)C2O)C2(C)CC(C)=C(O2)C(C)C(O)C1(C)O` (stereo not drawn) [Compound 14], the MIC in experiment [1], in experiment [2], in experiment [3], in experiment [4], in experiment [5] and in experiment [6] was greater than 100 µg/mL in each case.
On to `C#CCNC1CC(C)OC(OC2C(C)C(OC3CC(C)(OC)C(O)C(C)O3)C(C)C(=O)OC(CC)C(C)(O)C(O)C(C)C3=C(C)CC2(C)O3)C1O` (stereo not drawn) [Compound 41], for which the MIC in experiment [1], in experiment [2], in experiment [3], in experiment [4], in experiment [5] and in experiment [6] was greater than 100 µg/mL in each case.
For the compound `C#CC[N+](CC#C)(CC#C)C1CC(C)OC(OC2C(C)C(OC3CC(C)(OC)C(O)C(C)O3)C(C)C(=O)OC(CC)C(C)(O)C(O)C(C)C3=C(C)CC2(C)O3)C1O` (stereo not drawn) [Compound 48], the MIC in experiment [1] is greater than 100 µg/mL; in experiment [2], greater than 100 µg/mL; in experiment [3], 100 µg/mL; in experiment [4] it was 100 µg/mL; in experiment [5] it was 100 µg/mL; in experiment [6], 100 µg/mL.
